The values below are quoted from earlier work in patent US20220339295A1, “FULLERENE GALLIUM P[…] METHODS” (Exothule Inc., priority 2020, published 2022).

For data set [1], the target named is transferrin (Homo sapiens, UniProt P02787). As to conditions: relative to Fe3+.

Structures are written as SMILES.

transferrin, sequence (P02787 20-698, species assumed): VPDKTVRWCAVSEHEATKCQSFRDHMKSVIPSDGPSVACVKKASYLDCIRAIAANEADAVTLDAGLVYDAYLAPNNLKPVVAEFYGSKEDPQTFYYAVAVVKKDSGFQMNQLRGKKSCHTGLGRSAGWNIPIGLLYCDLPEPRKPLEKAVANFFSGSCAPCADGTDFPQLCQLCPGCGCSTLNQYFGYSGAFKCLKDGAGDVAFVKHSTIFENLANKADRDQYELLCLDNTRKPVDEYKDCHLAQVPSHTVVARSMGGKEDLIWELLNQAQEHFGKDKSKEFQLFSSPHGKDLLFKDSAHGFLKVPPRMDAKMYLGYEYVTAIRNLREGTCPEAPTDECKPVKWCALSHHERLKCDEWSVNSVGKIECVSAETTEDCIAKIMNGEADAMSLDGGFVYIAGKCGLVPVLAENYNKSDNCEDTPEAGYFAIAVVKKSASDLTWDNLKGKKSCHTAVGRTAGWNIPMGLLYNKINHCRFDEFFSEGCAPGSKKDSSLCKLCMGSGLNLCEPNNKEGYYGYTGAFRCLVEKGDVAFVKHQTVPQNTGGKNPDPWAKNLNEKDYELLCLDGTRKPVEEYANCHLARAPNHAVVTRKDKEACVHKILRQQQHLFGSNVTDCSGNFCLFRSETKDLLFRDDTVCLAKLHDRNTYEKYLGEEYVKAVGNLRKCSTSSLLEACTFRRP

Take `[Ga]` [gallium]: where the note is “after 24 hours”, the “gallium excreted in urine” value is 69%. The gallium excreted (in 48 hours) is recorded as 91%. Also, the “binding in transferrin, times less effectively than Fe3+” value in data set [1] is recorded as 300 times.
